Key:
Type in all cases: cell-based
K562 = experiment: Inhibition of tumor cell proliferation, CellTiter-Glo, K562; conditions: compound concentration 50 μM, 72 hours; for cell survival rate (%) at 50 µM: Homo sapiens, K562, read-out: Inhibitory activity against proliferation (cell survival rate) K562
Method: (§1) For various cell lines, the corresponding complete medium was used, and culture was carried out in an incubator at 37° C. with 5% CO2. The cells were counted, and inoculated into a 96-well plate at 2000-10000 cells/100 μl per well according to the cell volume and growth rate. The suspended cells were treated immediately, and the adherent cells were treated after adherence. The CellTiter-Glo method was used to detect the changes in cell viability 72 hours after the administration, and the cell survival rate at different concentrations was calculated by a formula: Survival rate (%)=(RLU of treatment well−RLU of blank well)/(RLU of control well−RLU of blank well)×100.
(§2) Method for expressing the inhibitory activity of the compounds against the proliferation of tumor cells: Evaluation was made based on the cell survival rate at a compound concentration of 50 μM. 60≤survival rate (%)<90 is considered to have low inhibitory activity against the proliferation of tumor cells (+); 30<survival rate (%)≤60 is considered to have moderate inhibitory activity against the proliferation of tumor cells (++); and survival rate (%)≤30 is considered to have high inhibitory activity against the proliferation of tumor cells (+++).

RPMI-8226 = experiment: Inhibition of tumor cell proliferation, CellTiter-Glo, RPMI-8226; conditions: compound concentration 50 μM, 72 hours; for cell survival rate (% of control) at 50 µM: Homo sapiens, RPMI-8226, read-out: Inhibitory activity against proliferation (cell survival rate) RPMI-8226
Method: as §1, §2

MDA-MB-453 = experiment: Inhibition of tumor cell proliferation, CellTiter-Glo, MDA-MB-453; conditions: compound concentration 50 μM, 72 hours; for cell survival rate (%) at 50 µM: Homo sapiens, MDA-MB-453, read-out: Inhibitory activity against proliferation (cell survival rate) MDA-MB-453
Method: as §1, §2

SU-DHL6 = experiment: Inhibition of tumor cell proliferation, CellTiter-Glo, SU-DHL6; conditions: compound concentration 50 μM, 72 hours; for cell survival rate (% of control) at 50 µM: Homo sapiens, SU-DHL-6, read-out: Inhibitory activity against proliferation (cell survival rate) SU-DHL6
Method: as §1, §2

BxPC-3 = experiment: Inhibition of tumor cell proliferation, CellTiter-Glo, BxPC-3; conditions: compound concentration 50 μM, 72 hours; for cell survival rate (%) at 50 µM: Homo sapiens, BXPC-3, read-out: Inhibitory activity against proliferation (cell survival rate) BxPC-3
Method: as §1, §2

A549 = experiment: Inhibition of tumor cell proliferation, CellTiter-Glo, A549; conditions: compound concentration 50 μM, 72 hours; for cell survival rate (% of control) at 50 µM: Homo sapiens, A549, read-out: Inhibitory activity against proliferation (cell survival rate) A549
Method: as §1, §2

| SMILES | Inhibitory activity against proliferation (cell survival rate) K562 (K562) | Inhibitory activity against proliferation (cell survival rate) RPMI-8226 (RPMI-8226) | Inhibitory activity against proliferation (cell survival rate) MDA-MB-453 (MDA-MB-453) | Inhibitory activity against proliferation (cell survival rate) SU-DHL6 (SU-DHL6) | Inhibitory activity against proliferation (cell survival rate) BxPC-3 (BxPC-3) | Inhibitory activity against proliferation (cell survival rate) A549 (A549) | cell survival rate (%) at 50 µM (K562) [%] | cell survival rate (% of control) at 50 µM (RPMI-8226) [%] | cell survival rate (%) at 50 µM (MDA-MB-453) [%] | cell survival rate (% of control) at 50 µM (SU-DHL6) [%] | cell survival rate (%) at 50 µM (BxPC-3) [%] | cell survival rate (% of control) at 50 µM (A549) [%] |
| --- | --- | --- | --- | --- | --- | --- | --- | --- | --- | --- | --- | --- |
| O=C1CCC(N2Cc3c(NC=C4C(=O)CC(c5csc6ccccc56)CC4=O)cccc3C2=O)C(=O)N1 (stereo not drawn) [Compound 37] | + (60≤survival rate (%)<90) | + (60≤survival rate (%)<90) | +++ (survival rate (%)≤30) | +++ (survival rate (%)≤30) | + (60≤survival rate (%)<90) | + (60≤survival rate (%)<90) | – | – | – | – | – | – |
| O=C1CCC(N2Cc3c(NC=C4C(=O)CC(c5cccc6ccccc56)CC4=O)cccc3C2=O)C(=O)N1 (stereo not drawn) [Compound 29] | +++ (survival rate (%)≤30) | +++ (survival rate (%)≤30) | +++ (survival rate (%)≤30) | ++ (30<survival rate (%)≤60) | ++ (30<survival rate (%)≤60) | +++ (survival rate (%)≤30) | – | – | – | – | – | – |
| O=C1CCC(N2C(=O)c3cccc(NC(=O)c4cnc(NC=C5C(=O)CC(c6ccccc6)CC5=O)s4)c3C2=O)C(=O)N1 (stereo not drawn) [Compound 63] | +++ (survival rate (%)≤30) | ++ (30<survival rate (%)≤60) | + (60≤survival rate (%)<90) | ++ (30<survival rate (%)≤60) | + (60≤survival rate (%)<90) | + (60≤survival rate (%)<90) | – | – | – | – | – | – |
| O=C1CCC(N2Cc3c(NC=C4C(=O)CC(c5ccccc5F)CC4=O)cccc3C2=O)C(=O)N1 (stereo not drawn) [Compound 24] | + (60≤survival rate (%)<90) | + (60≤survival rate (%)<90) | ++ (30<survival rate (%)≤60) | +++ (survival rate (%)≤30) | ++ (30<survival rate (%)≤60) | ++ (30<survival rate (%)≤60) | – | – | – | – | – | – |
| O=C1CC(c2ccccc2)CC(=O)C1=CNCCN1CCC(C(=O)N2C(=O)CCC(N3C(=O)c4ccccc4C3=O)C2=O)CC1 (stereo not drawn) [Compound 102] | +++ (survival rate (%)≤30) | +++ (survival rate (%)≤30) | +++ (survival rate (%)≤30) | ++ (30<survival rate (%)≤60) | + (60≤survival rate (%)<90) | +++ (survival rate (%)≤30) | – | – | – | – | – | – |
| O=C1CCC(N2Cc3cc(NC=C4C(=O)CC(c5ccccc5)CC4=O)ccc3C2=O)C(=O)N1 (stereo not drawn) [Compound 8] | ++ (30<survival rate (%)≤60) | ++ (30<survival rate (%)≤60) | + (60≤survival rate (%)<90) | + (60≤survival rate (%)<90) | ++ (30<survival rate (%)≤60) | ++ (30<survival rate (%)≤60) | – | – | – | – | – | – |
| CCOC(=O)C1CC(=O)C(=CNc2cccc3c2CN(C2CCC(=O)NC2=O)C3=O)C(=O)C1 (stereo not drawn) [Compound 134] | + (60≤survival rate (%)<90) | + (60≤survival rate (%)<90) | +++ (survival rate (%)≤30) | + (60≤survival rate (%)<90) | ++ (30<survival rate (%)≤60) | + (60≤survival rate (%)<90) | – | – | – | – | – | – |
| Cc1ccccc1C1CC(=O)C(=CNc2cccc3c2CN(C2CCC(=O)NC2=O)C3=O)C(=O)C1 (stereo not drawn) [Compound 4] | ++ (30<survival rate (%)≤60) | +++ (survival rate (%)≤30) | + (60≤survival rate (%)<90) | + (60≤survival rate (%)<90) | + (60≤survival rate (%)<90) | + (60≤survival rate (%)<90) | – | – | – | – | – | – |
| Nc1cccc2c1CN(C1CCC(=O)N(C(=O)N3CCN(CCNC=C4C(=O)CC(c5ccccc5)CC4=O)CC3)C1=O)C2=O (stereo not drawn) [Compound 100] | +++ (survival rate (%)≤30) | + (60≤survival rate (%)<90) | ++ (30<survival rate (%)≤60) | ++ (30<survival rate (%)≤60) | ++ (30<survival rate (%)≤60) | +++ (survival rate (%)≤30) | – | – | – | – | – | – |
| O=C1CCC(N2C(=O)c3cccc(NC(=O)OCOC(=O)/C=C/C(=O)N4CCN(CCNC=C5C(=O)CC(c6ccccc6)CC5=O)CC4)c3C2=O)C(=O)N1 (stereo not drawn) [Compound 86] | +++ (survival rate (%)≤30) | + (60≤survival rate (%)<90) | +++ (survival rate (%)≤30) | + (60≤survival rate (%)<90) | ++ (30<survival rate (%)≤60) | +++ (survival rate (%)≤30) | – | – | – | – | – | – |
| O=C1CCC(N2Cc3c(NC(=O)OCCN4CCN(CCNC=C5C(=O)CC(c6ccccc6)CC5=O)CC4)cccc3C2=O)C(=O)N1 (stereo not drawn) [Compound 79] | + (60≤survival rate (%)<90) | +++ (survival rate (%)≤30) | ++ (30<survival rate (%)≤60) | + (60≤survival rate (%)<90) | ++ (30<survival rate (%)≤60) | + (60≤survival rate (%)<90) | – | – | – | – | – | – |
| O=C1CCC(N2Cc3c(NC=C4C(=O)CC(c5c6ccccc6cc6ccccc56)CC4=O)cccc3C2=O)C(=O)N1 (stereo not drawn) [Compound 30] | +++ (survival rate (%)≤30) | +++ (survival rate (%)≤30) | +++ (survival rate (%)≤30) | +++ (survival rate (%)≤30) | + (60≤survival rate (%)<90) | +++ (survival rate (%)≤30) | – | – | – | – | – | – |
| O=C1CCC(N2Cc3c(NC(=O)c4cccc(NC=C5C(=O)CC(c6ccccc6)CC5=O)c4)cccc3C2=O)C(=O)N1 (stereo not drawn) [Compound 53] | +++ (survival rate (%)≤30) | +++ (survival rate (%)≤30) | ++ (30<survival rate (%)≤60) | +++ (survival rate (%)≤30) | + (60≤survival rate (%)<90) | +++ (survival rate (%)≤30) | – | – | – | – | – | – |
| O=C1CCC(N2Cc3c(N/C=C4\C(=O)CC(c5ccccc5)OC4=O)cccc3C2=O)C(=O)N1 (stereo not drawn) [Compound 112] | – | – | – | – | – | – | 30 to 60 | 30 to 60 | 30 to 60 | 60 to 90 | 30 to 60 | 60 to 90 |
| O=C1CCC(N2Cc3c(NC=C4C(=O)CC(COc5ccccc5)CC4=O)cccc3C2=O)C(=O)N1 (stereo not drawn) [Compound 118] | ++ (30<survival rate (%)≤60) | + (60≤survival rate (%)<90) | + (60≤survival rate (%)<90) | + (60≤survival rate (%)<90) | + (60≤survival rate (%)<90) | + (60≤survival rate (%)<90) | – | – | – | – | – | – |
| CC1(C#N)C(=O)/C(=C/Nc2cccc3c2CN(C2CCC(=O)NC2=O)C3=O)C(=O)CC1c1ccccc1 (stereo not drawn) [Compound 139] | – | – | – | – | – | – | ≤ 30 | ≤ 30 | ≤ 30 | ≤ 30 | 60 to 90 | 60 to 90 |

Reference: US11021457B2, “Class of isoindolone-imide ring-1,3-dione-2-ene compounds, composition and use thereof” (WIGEN BIOMEDICINE TECHNOLOGY (SHANGHAI) CO., LTD., priority 2017, dated 2021)
